Test results: patent publication US4281009A, “Hydantoin derivatives” (Nippon Zoki Pharmaceutical Co., Ltd., priority 1978, dated 1981)

Tests used:
[1] = Acute toxicity test (LD50, Litchfield-Wilcoxon), rats; conditions: rat, in vivo, ip, intraperitoneal
Experimental: (§1) Toxicity tests were carried out by intraperitoneal administration of the compound of the present invention to groups each comprising 10 ICR-strain mice and SD-strain rats. LD50 was calculated by the Litchfield-Wilcoxon method based on the number of death 72 hours after the administration.

[2] = Acute toxicity test (LD50, Litchfield-Wilcoxon), mice; conditions: mouse, in vivo, ip, intraperitoneal
Experimental: as §1

[3] = system: normal mice and SART stress mice; test: Analgesic effect, tail pressure method (Randall-Selitto's device); type: in vivo, mice (ddY-strain male); conditions: Mus musculus; for change in vivo at 200 mg/kg: intraperitoneal 200 mg/kg
Experimental: 5.1 Tail pressure method:
Randall-Selitto's device for determining analgesic effect by pressure stimulation was used. […]. The compounds of the present invention or other comparative drugs were given thereto and analgesic effect was determined. The effect was judged by measuring pressure applied 60 minutes after the intraperitoneal administration of the compounds of the present invention. The pressure thus measured was divided by a pressure before the administration. The value thus obtained was compared with that of a control group (to which 10 ml./Kg of 0.5% sodium salt of carboxymethylcellulose or 0.5% Tween 80 was given). When the compounds of the present invention were given perorally and other comparative drugs were given, an average of the pressure at 30, 60, 90 and 120 minutes after the administration was employed for evaluating the effect.

[4] = system: ddY-strain male mice; test: Effect of prolongation of sleeping time (hexobarbital); type: in vivo; conditions: for change in vivo at 300 mg/kg / change in vivo at 100 mg/kg: Mus musculus, ip; for change in vivo at 300 mg/kg: 300 mg/kg intraperitoneal; for change in vivo at 100 mg/kg: 100 mg/kg intraperitoneal
Experimental: 7. Effect of prolongation of sleeping time:
Groups of mice each comprising 10 ddY-strain male mice were used. Sodium salt of hexobarbital was given intraperitoneally. Thereafter, the period of time in which righting reflex disappeared was measured. The effect was evaluated on the basis of prolongation of time of disappearance of righting reflex by the intraperitoneal administration of the compounds of the present invention as compared with control mice.

[5] = system: normal mice and SART stress mice; test: Analgesic effect, D'Amour-Smith method; type: in vivo, mice (ddY-strain male); conditions: Mus musculus, po, peroral 100 mg/kg
Experimental: 5.3. D'Amour-Smith method:
Groups each comprising 10 ddY-strain male normal mice and SART stress mice to which SART stress had been applied for 4 days were used. The root of the tail of the mouse to which black ink was applied was irradiated with infrared rays for up to 15 seconds. Time required till escape response was observed was measured. The effect was shown by the ratio of the mice in which an average value of the response time at 30, 60, 90 and 120 minutes after the administration of the compounds of the present invention or other comparative drugs was prolonged to at least 2 times as long as the time before the administration.

SMILES	LD50 at 72 h ([1]; female)	LD50 at 72 h ([1]; male)	LD50 at 72 h ([2]; female)	LD50 at 72 h ([2]; male)	change in vivo at 300 mg/kg [4]	change in vivo at 100 mg/kg [4]	also measured
CCCOc1ccccc1C1(c2ccccc2OCCC)NC(=O)NC1=O [Compound 9, 5,5-Bis(2-propoxyphenyl)hydantoin]	> 5000 mg/kg	> 5000 mg/kg	> 5000 mg/kg	> 5000 mg/kg	39%	–	change in vivo at 200 mg/kg ([3]; ip, 1 h, SART stress mice, 60 minutes): 74.4%; change in vivo at 200 mg/kg ([3]; ip, 1 h, normal mice, 60 minutes): 21.3%; Effect of prolongation of sleeping time ([4]; 50 mg/kg intraperitoneal): 10.5%
O=C1NC(=O)C(c2ccccc2O)(c2ccccc2O)N1 [Compound 29, 5,5-Bis(2-hydroxyphenyl)hydantoin]	1900 mg/kg	1980 mg/kg	1600 mg/kg	1600 to 1800 mg/kg	–	–	–
COc1ccc(C2(c3ccc(OC)cc3OC)NC(=O)NC2=O)c(OC)c1 [Compound 18, 5,5-Bis(2,4-Dimethoxyphenyl)hydantoin]	> 5000 mg/kg	> 5000 mg/kg	> 5000 mg/kg	> 5000 mg/kg	–	–	–
COc1ccc(C2(c3ccc(OC)c(OC)c3)NC(=O)NC2=O)cc1OC [Compound 19, 5,5-Bis(3,4-dimethoxyphenyl)hydantoin]	> 5000 mg/kg	> 5000 mg/kg	> 5000 mg/kg	> 5000 mg/kg	–	10%	–
COc1ccc(C2(c3ccc(OC)cc3OC)NC(=O)NC2=O)cc1 (stereo not drawn) [Compound 15, 5-(2,4-Dimethoxyphenyl)-5-(4-methoxyphenyl)hydantoin]	> 5000 mg/kg	> 5000 mg/kg	> 5000 mg/kg	> 5000 mg/kg	23.9%	15.4%	–
COc1ccc(C2(c3ccc(OC)c(OC)c3)NC(=O)NC2=O)cc1 (stereo not drawn) [Compound 16, 5-(3,4-Dimethoxyphenyl)-5-(4-methoxyphenyl)hydantoin]	> 5000 mg/kg	> 5000 mg/kg	> 5000 mg/kg	> 5000 mg/kg	20.8%	–	–
Cc1c(N(C)C)c(=O)n(-c2ccccc2)n1C [Aminopyrine, reference compound]	–	–	–	–	–	–	change in vivo at 100 mg/kg ([3]; po, SART stress mice, peroral 100 mg/kg, average of 30, 60, 90 and 120 minutes): 58.9%; change in vivo at 100 mg/kg ([3]; po, normal mice, peroral 100 mg/kg, average of 30, 60, 90 and 120 minutes): 43.5%; responders at 100 mg/kg ([5]; SART stress mice): 50%; responders at 100 mg/kg ([5]; normal mice): 10%
O=C1NC(=O)C(c2ccccc2OCc2ccccc2)(c2ccccc2OCc2ccccc2)N1 [Compound 12, 5,5-Bis(2-benzyloxyphenyl)hydantoin]	> 5000 mg/kg	> 5000 mg/kg	> 5000 mg/kg	> 5000 mg/kg	–	–	–
O=C1NC(=O)C(c2ccccc2)(c2ccccc2O)N1 (stereo not drawn) [Compound 6, 5-(2-Hydroxyphenyl)-5-phenylhydantoin]	> 5000 mg/kg	> 5000 mg/kg	> 5000 mg/kg	> 5000 mg/kg	33.7%	30.6%	change in vivo at 100 mg/kg ([3]; ip, 1 h, SART stress mice, intraperitoneal 100 mg/kg, 60 minutes): 62.7%; change in vivo at 100 mg/kg ([3]; ip, 1 h, normal mice, intraperitoneal 100 mg/kg, 60 minutes): 38.1%
O=C1NC(=O)C(c2ccc(O)cc2)(c2ccc(O)cc2O)N1 (stereo not drawn) [Compound 31, 5-(2,4-Dihydroxyphenyl)-5-(4-hydroxyphenyl)hydantoin]	1510 mg/kg	1540 mg/kg	1200 mg/kg	1220 mg/kg	–	19.1%	–
O=C1NC(=O)C(c2ccc(O)c(CO)c2)(c2ccc(O)c(CO)c2)N1 [Compound 20, 5,5-Bis(4-hydroxy-3-hydroxymethylphenyl)hydantoin]	4090 mg/kg	4310 mg/kg	2980 mg/kg	> 3000 mg/kg	–	–	–
